The nature of data set [1]: Antifertilization activity in Asterias amurensis sperm assessed as inhibition of sperm motility after 30 mins. The format is functional, cell-based.
Data set [2] in a line: Antifertilization activity in Asterias amurensis egg assessed as inhibition of egg activation after 30 mins. The format is functional.
A short description of data set [3]: Antifertilization activity in Asterias amurensis oocyte assessed as inhibition of 1-methyladenine-induced oocyte maturation at 100 uM. The format is functional, cell-based.
Data set [4] is described as follows: Antifertilization activity in Asterias amurensis fertilized egg assessed as inhibition of blastula development at 100 uM. The format is functional.
Data set [5] in a line: Toxicity against Asterias amurensis embryos lysed in sea water at 100 uM. The note with it: buffer. Set-up: species or system Embryo.
Data set [6] can be described thus: Toxicity against Asterias amurensis sperm in sea water at 100 uM. The format is cell-based.
Data set [7] is described as follows: Toxicity against Asterias amurensis egg in sea water at 100 uM. To be noted: buffer.

≈ marks a conversion by molar mass, not a printed value. Calls of active or inactive are those of the source. The rule behind the calls is not given here. A value given as a limit tells only on which side of the number the result lay.

With `C#C/C=C\CCCC/C=C\C#CC#CCCCC#CC#C[C@@H](O)COS(=O)(=O)O`, the MIC came out at 100 µM (≈ 41.3 µg/mL) in data set [1] and 50 µM (≈ 20.6 µg/mL) in data set [2]. Further, the outcome in data set [3] and in data set [4] was inactive.
On to `C#C/C=C\CCCC/C=C\C#CC#CCCCC#CC#C[C@H](COS(=O)(=O)O)OS(=O)(=O)O`, for which the MIC in data set [1] is 50 µM (≈ 24.6 µg/mL); in data set [2], 6.3 µM (≈ 3.1 µg/mL). Moreover, the result in data set [3] and in data set [4] was inactive.
As for `C#C/C=C\CCCC/C=C\C#CC#CCCCC#CC#C[C@@H](O)CO` [SIPHONODIOL], the MIC was 13 µM (≈ 4.32 µg/mL) in data set [1] and over 200 µM in data set [2]. The outcome in data set [3] was inactive. In addition, the Activity result in data set [5], in data set [6] and in data set [7] was “Toxic” throughout.

These data come from ChEMBL document CHEMBL1158309, “Callyspongins A and B: Novel Polyacetylene Sulfates from the Marine Sponge Callyspongia truncata That Inhibit Fertilization of Starfish Gametes” (J Nat Prod, 1996).
